Test systems include SNB-78; M19-MEL; DLD-1; RXF 631; HOP-18; LXFL 529; DMS-273; KM-20L2; XF498.
Assay in all cases: NCI-60 cell line screen, 48 h

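How tested: cells in 96-well plates exposed to compound for 48 hours at five concentrations. The concentration for 50% growth inhibition is given as GI50.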 Activity calls are given as the source filed them. Cut-off read from the data, not from the text of the source: active = GI50 up to about 1.1 µM and inactive = higher. Bounds are passed on as bounds.

With `Nc1ncnc2c1ncn2CC(O)CO` (stereo unspecified), the GI50 in the experiment with SNB-78, in the experiment with M19-MEL, with DLD-1, with RXF 631, in the experiment on HOP-18 and with LXFL 529 was > 100 µM (inactive) each time. Further, the GI50 with DMS-273 was > 100 µM (inactive).
Turning to `C1=CC=C2NCCOCC/N=C3/C=CC=CC=C3NCCOCC/N=C\2C=C1`, the GI50 in the experiment with KM-20L2 is 21.6 µM (inactive); in the experiment on SNB-78, > 100 µM (inactive); in the experiment with M19-MEL, > 100 µM (inactive); in the experiment with DLD-1 it was > 100 µM (inactive); with RXF 631, 30 µM (inactive); with HOP-18, > 100 µM (inactive). Besides, the values for the GI50 with LXFL 529 and in the experiment with DMS-273 were 40.1 µM (inactive) and > 100 µM (inactive), respectively.
For the compound `CCCCCCCCCCCCCCCC(=O)OCC1OC(OC)C2NP(=O)(N(CCCl)CCCl)OC1C2O` (stereo unspecified), the GI50 with KM-20L2 was 15.8 µM (inactive); in the experiment with SNB-78 it was 3.3 µM (inactive); with M19-MEL it was 15.6 µM (inactive); in the experiment on DLD-1 it was 2.7 µM (inactive); in the experiment with RXF 631, 6.89 µM (inactive); in the experiment on HOP-18, 8.53 µM (inactive). Besides, the GI50 in the experiment with XF498 is 2.31 µM (inactive); with LXFL 529, 2.43 µM (inactive); in the experiment with DMS-273, 0.152 µM (active).
Take `C/C(=N\N(C)C)C(CN1CCCCC1)C(c1ccccc1)c1c(O)c2ccccc2oc1=O` (stereo unspecified): the GI50 in the experiment on KM-20L2, in the experiment on SNB-78, with M19-MEL, in the experiment with DLD-1, in the experiment with RXF 631 and in the experiment with HOP-18 was > 100 µM (inactive) each time. In addition, the GI50 is 74.1 µM (inactive) in the experiment with XF498, > 100 µM (inactive) in the experiment on LXFL 529 and > 100 µM (inactive) with DMS-273.
In the case of `COC12CC(O)=C(C(C)=O)C(=O)C1(C)c1c(OC(C)=O)c(C)c(O)c(C(C)=O)c1O2` (stereo unspecified), the GI50 is 16.7 µM (inactive) with KM-20L2; 27.7 µM (inactive) with SNB-78; 23.2 µM (inactive) in the experiment with M19-MEL; 21.2 µM (inactive) with RXF 631; 5.11 µM (inactive) in the experiment with HOP-18; 14.8 µM (inactive) in the experiment on XF498. Also, the GI50 in the experiment on LXFL 529 is 14.3 µM (inactive).
Regarding `COc1ccc(S(=O)(=O)N/N=C/c2cc(I)cc([N+](=O)[O-])c2O)cc1OC`, the GI50 with KM-20L2 is > 100 µM (inactive); in the experiment with SNB-78, 24.7 µM (inactive); in the experiment on M19-MEL, 33 µM (inactive); with DLD-1, 36.3 µM (inactive); in the experiment with RXF 631 it was 38.8 µM (inactive); in the experiment on HOP-18, 21.6 µM (inactive). The GI50 was 24.1 µM (inactive) in the experiment with XF498, 27 µM (inactive) in the experiment with LXFL 529 and 35.2 µM (inactive) with DMS-273.
Turning to `COC(=O)C1=C(c2ccc(OC)c(OC)c2)OC(c2cc(OC)c(OC)c(OC)c2)C1` (stereo unspecified), the GI50 is > 100 µM (inactive) in the experiment on KM-20L2; 22.8 µM (inactive) with SNB-78; > 100 µM (inactive) in the experiment with M19-MEL; 2.12 µM (inactive) in the experiment with DLD-1; 94.2 µM (inactive) with RXF 631; 61.7 µM (inactive) in the experiment with HOP-18. Further, the GI50 is 24.5 µM (inactive) in the experiment on XF498, 0.711 µM (active) with LXFL 529 and 18.7 µM (inactive) in the experiment with DMS-273.
Take `O=c1ccn(C2(CO)C=C(CO)C(O)C2O)c(=O)[nH]1` (stereo unspecified): the GI50 with KM-20L2, in the experiment on SNB-78, in the experiment with M19-MEL, in the experiment with DLD-1, in the experiment on RXF 631 and in the experiment with HOP-18 was > 25.7 µM (inactive) in each case. Besides, the GI50 in the experiment with LXFL 529 and with DMS-273 was > 25.7 µM (inactive) each time.
